# According to PubChem BioAssay AID330 (DTP/NCI, 2004):
# Where “and” joins values, the source holds several entries; their conditions need not be identical. Equal values may be shown once. Inconclusive results and toxic doses are left out.
# System: P388 leukemia ip, CD2F1 mice, survival T/C
# Experiment: NCI In Vivo Anticancer Drug Screen. Data for tumor model P388 Leukemia (intraperitoneal) in CD2F1 (CDF1) mice
# Conditions: endpoint: median survival time, higher = longer survival
# Outline: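 Mice carrying the transplanted tumor received test compound or vehicle. Survival was recorded in each group, and the value is the treated-group measurement divided by that of the vehicle-treated control group.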
# [1] = dose: 100.0 mg/kg/injection, schedule: Q04DX003 (ip), vehicle: saline with Tween-80
# [2] = dose: 200.0 mg/kg/injection, schedule: Q04DX003 (ip), vehicle: saline with Tween-80
# [3] = dose: 400.0 mg/kg/injection, schedule: Q04DX003 (ip), vehicle: saline with Tween-80
# [4] = dose: 50.0 mg/kg/injection, schedule: Q01DX005 (ip), vehicle: saline with Tween-80
# [5] = dose: 100.0 mg/kg/injection, schedule: Q01DX005 (ip), vehicle: saline with Tween-80
# [6] = dose: 200.0 mg/kg/injection, schedule: Q01DX005 (ip), vehicle: saline with Tween-80
# [7] = dose: 60.0 mg/kg/injection, schedule: Q01DX005 (ip), vehicle: saline with Tween-80
# [8] = dose: 120.0 mg/kg/injection, schedule: Q01DX005 (ip), vehicle: saline with Tween-80
# [9] = dose: 50.0 mg/kg/injection, schedule: Q01DX009 (ip), vehicle: Klucel (hydroxypropylcellulose) (HPC)
# [10] = dose: 100.0 mg/kg/injection, schedule: Q01DX009 (ip), vehicle: Klucel (hydroxypropylcellulose) (HPC)
# [11] = dose: 200.0 mg/kg/injection, schedule: Q01DX009 (ip), vehicle: Klucel (hydroxypropylcellulose) (HPC)
# [12] = dose: 50.0 mg/kg/injection, schedule: Q04DX003 (ip), vehicle: saline with Tween-80
smiles,measurement,setting,value
CC(=O)Oc1ccc(/C=N/NC(N)=S)nc1,T/C,"dose: 4.0 mg/kg/injection, schedule: Q01DX009 (ip), vehicle: saline with Tween-80",154 % of control
same,T/C,"dose: 14.6 mg/kg/injection, schedule: Q01DX009 (ip), vehicle: saline with Tween-80",163 % of control
same,T/C,"dose: 22.0 mg/kg/injection, schedule: Q01DX009 (ip), vehicle: saline with Tween-80",177 % of control
same,T/C,"dose: 33.0 mg/kg/injection, schedule: Q01DX009 (ip), vehicle: saline with Tween-80",181 % of control
same,T/C,"dose: 37.5 mg/kg/injection, schedule: Q01DX009 (ip), vehicle: saline with Tween-80",170 % of control
same,T/C,"dose: 50.0 mg/kg/injection, schedule: Q01DX009 (ip), vehicle: saline with Tween-80",204 % of control
same,T/C,"dose: 75.0 mg/kg/injection, schedule: Q01DX009 (ip), vehicle: saline with Tween-80",173 % of control
same,T/C,"dose: 150.0 mg/kg/injection, schedule: Q01DX009 (ip), vehicle: saline with Tween-80",88 % of control
S[C@@H]1CCCN1,T/C,"dose: 50.0 mg/kg/injection, schedule: Q01DX005 (ip), vehicle: saline",97 % of control
same,T/C,"dose: 100.0 mg/kg/injection, schedule: Q01DX005 (ip), vehicle: saline",102 % of control
same,T/C,"dose: 200.0 mg/kg/injection, schedule: Q01DX005 (ip), vehicle: saline",99 % of control
C1=NCCN=Cc2ccccc2NCCNc2ccccc21,T/C,"dose: 100.0 mg/kg/injection, schedule: Q04DX003 (ip), vehicle: saline",93 % of control
same,T/C,"dose: 200.0 mg/kg/injection, schedule: Q04DX003 (ip), vehicle: saline",91 % of control
same,T/C,"dose: 400.0 mg/kg/injection, schedule: Q04DX003 (ip), vehicle: saline",103 % of control
COc1ccc(CCN2C(=O)CCC3=C2CCC3=O)cc1OC,T/C,"dose: 25.0 mg/kg/injection, schedule: Q01DX005 (ip), vehicle: Klucel (hydroxypropylcellulose) (HPC)",100 % of control
same,T/C,"dose: 50.0 mg/kg/injection, schedule: Q01DX005 (ip), vehicle: Klucel (hydroxypropylcellulose) (HPC)",98 % of control
same,T/C,"dose: 100.0 mg/kg/injection, schedule: Q01DX005 (ip), vehicle: Klucel (hydroxypropylcellulose) (HPC)",100 % of control
same,T/C,"dose: 200.0 mg/kg/injection, schedule: Q01DX005 (ip), vehicle: Klucel (hydroxypropylcellulose) (HPC)",106 % of control
Cn1c(N)c(C(=O)Cc2ccccc2)c(=O)n(C)c1=O,T/C,"dose: 100.0 mg/kg/injection, schedule: Q04DX003 (ip), vehicle: Klucel (hydroxypropylcellulose) (HPC)",109 % of control
same,T/C,"dose: 200.0 mg/kg/injection, schedule: Q04DX003 (ip), vehicle: Klucel (hydroxypropylcellulose) (HPC)",100 % of control
same,T/C,"dose: 400.0 mg/kg/injection, schedule: Q04DX003 (ip), vehicle: Klucel (hydroxypropylcellulose) (HPC)",109 % of control
Nc1ccc([N+](=O)[O-])c(N)n1,T/C,[1],100 % of control
same,T/C,[2],107 % of control
same,T/C,[3],97 % of control
CCCCCCCCCCC(=O)N(C(C)CC(C)C)C1CC(C)CC(C)(C)C1 (stereo not drawn),T/C,[4],104 % of control
same,T/C,[5],100 % of control
same,T/C,[6],101 % of control
CN(c1ccccc1)S(=O)(=O)c1ccccc1,T/C,"dose: 100.0 mg/kg/injection, schedule: Q01DX009 (ip), vehicle: saline with Tween-80",95 % of control
same,T/C,"dose: 200.0 mg/kg/injection, schedule: Q01DX009 (ip), vehicle: saline with Tween-80",95 % of control
same,T/C,[2],100 % of control
same,T/C,"dose: 400.0 mg/kg/injection, schedule: Q01DX009 (ip), vehicle: saline with Tween-80",100 % of control
same,T/C,[3],87 % of control
CSC1NN=C(CCC(=O)Nc2ccc(C)cc2)O1 (stereo not drawn),T/C,[7],108 % of control
same,T/C,[8],92 % of control
same,T/C,"dose: 240.0 mg/kg/injection, schedule: Q01DX005 (ip), vehicle: saline with Tween-80",102 % of control
O=C(Nc1cccc2ccccc12)[C@H]1C[C@H]2C=C[C@@H]1C2,T/C,[1],95 % of control
same,T/C,[2],90 % of control
same,T/C,[3],113 % of control
CSC(/C=C1\C=Cc2ccccc2N1C)=N\S(=O)(=O)c1ccc(N)cc1,T/C,"dose: 25.0 mg/kg/injection, schedule: Q04DX002 (ip), vehicle: saline with Tween-80",107 % of control
same,T/C,"dose: 50.0 mg/kg/injection, schedule: Q04DX002 (ip), vehicle: saline with Tween-80",100 % of control
same,T/C,"dose: 100.0 mg/kg/injection, schedule: Q04DX002 (ip), vehicle: saline with Tween-80",102 % of control
CC(C)(C)c1cc(C(C)(C)C)c(O)c(Br)c1O,T/C,[9],101 % of control
same,T/C,[10],102 % of control
same,T/C,[11],101 % of control
CSC1=NS(=O)(=O)c2ccccc21,T/C,[4],96 % of control
same,T/C,[5],96 % of control
same,T/C,[6],103 % of control
CN1C(=S)C(=N)OC1c1ccc(Cl)cc1Cl (stereo not drawn),T/C,"dose: 60.0 mg/kg/injection, schedule: Q01DX005 (ip), vehicle: Klucel + Tween-80",102 % of control
same,T/C,"dose: 120.0 mg/kg/injection, schedule: Q01DX005 (ip), vehicle: Klucel + Tween-80",94 % of control
same,T/C,"dose: 240.0 mg/kg/injection, schedule: Q01DX005 (ip), vehicle: Klucel + Tween-80",96 % of control
CC(=O)c1cccc(NC(=O)Nc2nccs2)c1,T/C,"dose: 25.0 mg/kg/injection, schedule: Q01DX009 (ip), vehicle: Klucel (hydroxypropylcellulose) (HPC)",102 % of control
same,T/C,[9],110 % of control
same,T/C,[10],101 % of control
same,T/C,[11],105 % of control
CN1C(=O)N(C)C2(C=Cc3ccccc3O2)N(C)C1=O,T/C,[12],92 % of control
same,T/C,[1],98 % of control
same,T/C,[2],92 % of control
CCCCCCC(=O)CC(SCCS)c1ccc(Cl)c(Cl)c1 (stereo not drawn),T/C,"dose: 50.0 mg/kg/injection, schedule: Q01DX009 (ip), vehicle: saline",102 % of control
same,T/C,"dose: 100.0 mg/kg/injection, schedule: Q01DX009 (ip), vehicle: saline",89 % of control
COc1cc(/C=N/NC(N)=O)cc(OC)c1O,T/C,[9],105 % of control
same,T/C,[10],99 % of control
same,T/C,[11],98 % of control
C=C(C)C1CCC(C)CC(=O)C1 (stereo not drawn),T/C,"dose: 100.0 mg/kg/injection, schedule: Q04DX003 (ip), vehicle: saline + Tween-80 + alcohol",100 % of control
same,T/C,"dose: 200.0 mg/kg/injection, schedule: Q04DX003 (ip), vehicle: saline + Tween-80 + alcohol",91 % of control
same,T/C,"dose: 400.0 mg/kg/injection, schedule: Q04DX003 (ip), vehicle: saline + Tween-80 + alcohol",91 % of control
O=C1OC(Cl)C(c2ccccc2)=C1c1ccccc1 (stereo not drawn),T/C,"dose: 100.0 mg/kg/injection, schedule: Q04DX002 (ip), vehicle: saline",96 % of control
same,T/C,"dose: 200.0 mg/kg/injection, schedule: Q04DX002 (ip), vehicle: saline",98 % of control
same,T/C,"dose: 400.0 mg/kg/injection, schedule: Q04DX002 (ip), vehicle: saline",105 % of control
Nc1ccccc1C(=O)Nc1ccc(Cl)cc1Cl,T/C,[4],104 % of control
same,T/C,[5],92 % of control
same,T/C,[6],92 % of control
CCCCNC(=S)N/N=C1/CC(=O)N(c2ccccc2)C1c1ccccc1 (stereo not drawn),T/C,[7],89 % of control
same,T/C,[8],89 % of control
COc1ccc(/C=C/C(C)=N/NC(N)=O)cc1OC,T/C,[4],102 % of control
same,T/C,[5],102 % of control
same,T/C,[6],106 % of control
C1CCC(C2CCCC[N-]2)[N-]C1.O.O.[Pd+2] (stereo not drawn),T/C,"dose: 6.25 mg/kg/injection, schedule: Q04DX003 (ip), vehicle: Klucel (hydroxypropylcellulose) (HPC)",102 % of control
same,T/C,"dose: 6.25 mg/kg/injection, schedule: Q04DX003 (ip), vehicle: saline with Tween-80",96 % of control
same,T/C,"dose: 12.5 mg/kg/injection, schedule: Q04DX003 (ip), vehicle: Klucel (hydroxypropylcellulose) (HPC)",102 % of control
same,T/C,"dose: 12.5 mg/kg/injection, schedule: Q04DX003 (ip), vehicle: saline with Tween-80",104 % of control
same,T/C,"dose: 25.0 mg/kg/injection, schedule: Q04DX003 (ip), vehicle: Klucel (hydroxypropylcellulose) (HPC)",102 % of control
same,T/C,"dose: 25.0 mg/kg/injection, schedule: Q04DX003 (ip), vehicle: saline with Tween-80",98 % of control and 105 % of control
same,T/C,"dose: 50.0 mg/kg/injection, schedule: Q04DX003 (ip), vehicle: Klucel (hydroxypropylcellulose) (HPC)",101 % of control
same,T/C,[12],96 % of control
same,T/C,[1],97 % of control
Cn1c([N+](=O)[O-])cnc1/C=N\N1CC(CN2CCOCC2)OC1=O (stereo not drawn),T/C,"dose: 50.0 mg/kg/injection, schedule: Q01DX009 (ip), vehicle: suspension in saline",100 % of control
same,T/C,"dose: 100.0 mg/kg/injection, schedule: Q01DX009 (ip), vehicle: suspension in saline",100 % of control
same,T/C,"dose: 200.0 mg/kg/injection, schedule: Q01DX009 (ip), vehicle: suspension in saline",100 % of control
